# Publication PMC6017224, “Phytoestrogenic Activity of Blackcurrant Anthocyanins Is Partially Mediated through Estrogen Receptor Beta” (Molecules : A Journal of Synthetic Chemistry and Natural …, 2017)
# Target: T1, human ERβ (Homo sapiens, UniProt Q92731)
# T1 construct: purchased Life Technologies
# Experiment: PolarScreen ERβ competitive binding assay (fluorescence polarization)
# Conditions: recombinant human ERβ 23 nM, 4.5 nM Fluormone ES2 Green, 2 h; approximate IC50; read-out: IC50 (displacement of Fluormone ES2 Green from ERβ)
# T1 sequence (Q92731 whole entry): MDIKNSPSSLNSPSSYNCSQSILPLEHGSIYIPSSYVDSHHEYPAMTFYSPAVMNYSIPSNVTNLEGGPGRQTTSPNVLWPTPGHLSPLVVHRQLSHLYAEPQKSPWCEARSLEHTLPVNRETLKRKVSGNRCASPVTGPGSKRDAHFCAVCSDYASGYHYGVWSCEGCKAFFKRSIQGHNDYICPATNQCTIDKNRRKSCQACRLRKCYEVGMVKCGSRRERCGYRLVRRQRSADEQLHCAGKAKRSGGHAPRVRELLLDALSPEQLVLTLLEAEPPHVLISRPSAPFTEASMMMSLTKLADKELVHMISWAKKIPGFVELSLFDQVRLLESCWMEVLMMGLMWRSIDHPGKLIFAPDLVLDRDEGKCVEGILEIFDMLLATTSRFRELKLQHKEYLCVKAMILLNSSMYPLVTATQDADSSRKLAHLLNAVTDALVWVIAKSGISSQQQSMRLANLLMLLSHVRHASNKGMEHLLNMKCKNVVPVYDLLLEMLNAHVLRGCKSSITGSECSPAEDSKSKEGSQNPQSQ
row,IC50 [nM],Compound
1,2800,"OC[C@H]1O[C@@H](Oc2cc3c(O)cc(O)cc3[o+]c2-c2ccc(O)c(O)c2)[C@H](O)[C@@H](O)[C@@H]1O [C3G, cyanidin-3-glucoside]"
2,9700,"OC[C@H]1O[C@@H](Oc2cc3c(O)cc(O)cc3[o+]c2-c2cc(O)c(O)c(O)c2)[C@H](O)[C@@H](O)[C@@H]1O [D3G, delphinidin-3-glucoside]"
3,2300,"C[C@@H]1O[C@@H](OC[C@H]2O[C@@H](Oc3cc4c(O)cc(O)cc4[o+]c3-c3cc(O)c(O)c(O)c3)[C@H](O)[C@@H](O)[C@@H]2O)[C@H](O)[C@H](O)[C@H]1O [D3R, delphinidin-3-rutinoside]"
